Assay results: US10792249B2, “High drug loading pharmaceutical compositions” (AcrysPharm LLC, priority 2017, dated 2020)

Test: Preliminary screening of ibuprofen solubility in HPMC
Assay type: physicochemical
Settings: 0.5 part ibuprofen in 1 part HPMC w/w
Description: As listed in Table 4, […] process, which is a common procedure to generate glass-solution solid dispersion (Newman, ‘Pharmaceutical Amorphous Solid Dispersions’, Wiley (2015)). […] Therefore, these dispersions exceed the solubility limit of ibuprofen in HPMC.

CC(C)Cc1ccc(C(C)C(=O)O)cc1 (racemic) [ibuprofen]
solubility of ibuprofen in HPMC: about 50 wt % of HPMC
